# Measurements as given in the NIST ThermoML archive (doi:10.1021/acs.jced.8b00201).
# ± gives the expanded uncertainty stated by the source.
# Experiment: xn = mol fraction of the nth substance listed
# Settings: 100 kPa, Liquid; for viscosity: Concentric cylinders viscometry; for mass density: Vibrating tube method
compound,measurement,setting,value
CCCCCCCCCO [nonan-1-ol] + O=C1CCCCC1,viscosity,"293.15 K, x2 = 0",11.41 ± 0.57 mPa·s
same,viscosity,"293.15 K, x2 = 0.0813",9.78 ± 0.49 mPa·s
same,viscosity,"293.15 K, x2 = 0.1582",8.31 ± 0.42 mPa·s
same,viscosity,"293.15 K, x2 = 0.2378",6.98 ± 0.35 mPa·s
same,viscosity,"293.15 K, x2 = 0.3573",5.42 ± 0.27 mPa·s
same,viscosity,"293.15 K, x2 = 0.4381",4.61 ± 0.23 mPa·s
same,viscosity,"293.15 K, x2 = 0.5589",3.69 ± 0.19 mPa·s
same,viscosity,"293.15 K, x2 = 0.6488",3.2 ± 0.16 mPa·s
same,viscosity,"293.15 K, x2 = 0.724",2.96 ± 0.15 mPa·s
same,viscosity,"293.15 K, x2 = 0.8481",2.55 ± 0.13 mPa·s
same,viscosity,"293.15 K, x2 = 0.9411",2.33 ± 0.12 mPa·s
same,mass density,"293.15 K, x2 = 0",827.5 ± 20 kg/m3
same,mass density,"293.15 K, x2 = 0.0813",833.2 ± 20 kg/m3
same,mass density,"293.15 K, x2 = 0.1582",839 ± 20 kg/m3
same,mass density,"293.15 K, x2 = 0.2378",845.5 ± 20 kg/m3
same,mass density,"293.15 K, x2 = 0.3573",856.3 ± 20 kg/m3
same,mass density,"293.15 K, x2 = 0.4381",864.3 ± 20 kg/m3
same,mass density,"293.15 K, x2 = 0.5589",877.9 ± 20 kg/m3
same,mass density,"293.15 K, x2 = 0.6488",889.3 ± 20 kg/m3
same,mass density,"293.15 K, x2 = 0.724",899.9 ± 20 kg/m3
same,mass density,"293.15 K, x2 = 0.8481",919.6 ± 20 kg/m3
same,mass density,"293.15 K, x2 = 0.9411",936.8 ± 20 kg/m3
same,viscosity,"298.15 K, x2 = 0",9.43 ± 0.47 mPa·s
same,viscosity,"298.15 K, x2 = 0.0813",8.15 ± 0.41 mPa·s
same,viscosity,"298.15 K, x2 = 0.1582",6.94 ± 0.35 mPa·s
same,viscosity,"298.15 K, x2 = 0.2378",5.92 ± 0.3 mPa·s
same,viscosity,"298.15 K, x2 = 0.3573",4.68 ± 0.24 mPa·s
same,viscosity,"298.15 K, x2 = 0.4381",4.01 ± 0.2 mPa·s
same,viscosity,"298.15 K, x2 = 0.5589",3.21 ± 0.16 mPa·s
same,viscosity,"298.15 K, x2 = 0.6488",2.8 ± 0.14 mPa·s
same,viscosity,"298.15 K, x2 = 0.724",2.59 ± 0.13 mPa·s
same,viscosity,"298.15 K, x2 = 0.8481",2.24 ± 0.11 mPa·s
same,viscosity,"298.15 K, x2 = 0.9411",2.11 ± 0.11 mPa·s
same,mass density,"298.15 K, x2 = 0",824 ± 20 kg/m3
same,mass density,"298.15 K, x2 = 0.0813",829.6 ± 20 kg/m3
same,mass density,"298.15 K, x2 = 0.1582",835.2 ± 20 kg/m3
same,mass density,"298.15 K, x2 = 0.2378",841.5 ± 20 kg/m3
same,mass density,"298.15 K, x2 = 0.3573",852.1 ± 20 kg/m3
same,mass density,"298.15 K, x2 = 0.4381",860 ± 20 kg/m3
same,mass density,"298.15 K, x2 = 0.5589",873.3 ± 20 kg/m3
same,mass density,"298.15 K, x2 = 0.6488",884.6 ± 20 kg/m3
same,mass density,"298.15 K, x2 = 0.724",895 ± 20 kg/m3
same,mass density,"298.15 K, x2 = 0.8481",914.4 ± 20 kg/m3
same,mass density,"298.15 K, x2 = 0.9411",931.2 ± 20 kg/m3
same,viscosity,"303.15 K, x2 = 0",7.86 ± 0.39 mPa·s
same,viscosity,"303.15 K, x2 = 0.0813",6.78 ± 0.34 mPa·s
same,viscosity,"303.15 K, x2 = 0.1582",5.87 ± 0.3 mPa·s
same,viscosity,"303.15 K, x2 = 0.2378",5.03 ± 0.25 mPa·s
same,viscosity,"303.15 K, x2 = 0.3573",4.03 ± 0.2 mPa·s
same,viscosity,"303.15 K, x2 = 0.4381",3.49 ± 0.18 mPa·s
same,viscosity,"303.15 K, x2 = 0.5589",2.87 ± 0.14 mPa·s
same,viscosity,"303.15 K, x2 = 0.6488",2.53 ± 0.13 mPa·s
same,viscosity,"303.15 K, x2 = 0.724",2.37 ± 0.12 mPa·s
same,viscosity,"303.15 K, x2 = 0.8481",2.08 ± 0.11 mPa·s
same,viscosity,"303.15 K, x2 = 0.9411",1.95 ± 0.1 mPa·s
same,mass density,"303.15 K, x2 = 0",820.5 ± 20 kg/m3
same,mass density,"303.15 K, x2 = 0.0813",825.9 ± 20 kg/m3
same,mass density,"303.15 K, x2 = 0.1582",831.5 ± 20 kg/m3
same,mass density,"303.15 K, x2 = 0.2378",837.7 ± 20 kg/m3
same,mass density,"303.15 K, x2 = 0.3573",848.1 ± 20 kg/m3
same,mass density,"303.15 K, x2 = 0.4381",855.9 ± 20 kg/m3
same,mass density,"303.15 K, x2 = 0.5589",869.1 ± 20 kg/m3
same,mass density,"303.15 K, x2 = 0.6488",880.2 ± 20 kg/m3
same,mass density,"303.15 K, x2 = 0.724",890.5 ± 20 kg/m3
same,mass density,"303.15 K, x2 = 0.8481",909.6 ± 20 kg/m3
same,mass density,"303.15 K, x2 = 0.9411",926.3 ± 20 kg/m3
same,viscosity,"308.15 K, x2 = 0",6.61 ± 0.33 mPa·s
same,viscosity,"308.15 K, x2 = 0.0813",5.73 ± 0.29 mPa·s
same,viscosity,"308.15 K, x2 = 0.1582",4.96 ± 0.25 mPa·s
same,viscosity,"308.15 K, x2 = 0.2378",4.31 ± 0.22 mPa·s
same,viscosity,"308.15 K, x2 = 0.3573",3.51 ± 0.18 mPa·s
same,viscosity,"308.15 K, x2 = 0.4381",3.08 ± 0.16 mPa·s
same,viscosity,"308.15 K, x2 = 0.5589",2.57 ± 0.13 mPa·s
same,viscosity,"308.15 K, x2 = 0.6488",2.3 ± 0.12 mPa·s
same,viscosity,"308.15 K, x2 = 0.724",2.16 ± 0.11 mPa·s
same,viscosity,"308.15 K, x2 = 0.8481",1.93 ± 0.1 mPa·s
same,viscosity,"308.15 K, x2 = 0.9411",1.79 ± 0.09 mPa·s
